Measurements from patent publication US20060178374A1, “Aminoheteroaryl compounds as protein kinase inhibitors” (AGOURON PHARMACEUTICALS, INC., priority 2004, published 2006).

Target: HGFR (c-Met) (Homo sapiens, UniProt P08581)
Assay: HGFR Continuous-Coupled Spectrophotometric Assay
Format: biochemical
Details: HGFR enzyme 50 nM, Met-2 peptide substrate, 37° C.
Experimental: The general procedure is as follows: compounds and kinase assay reagents are introduced into test wells. The assay is initiated by addition of the kinase enzyme. Enzyme inhibitors reduce the measured activity of the enzyme.
In the continuous-coupled spectrophotometric assay the time-dependent production of ADP by the kinase is determined by analysis of the rate of consumption of NADH by measurement of the decrease in absorbance at 340 nm. As the PK produces ADP it is re-converted to ATP by reaction with phosphoenol pyruvate and pyruvate kinase. Pyruvate is also produced in this reaction. Pyruvate is subsequently converted to lactate by reaction with lactate dehydrogenase, which simultaneously converts NADH to NAD.
HGFR Continuous-Coupled Spectrophotometric Assay
This assay analyzes the tyrosine kinase activity of HGFR on the Met-2 substrate peptide, a peptide derived from the activation loop of the HGFR.
• 1. […] Dissolve up in 200 mM HEPES, pH 7.5 at 10 mM stock. • 3. 1 M PEP (phospho-enol-pyruvate) in 200 mM HEPES, pH 7.5 • 4. 100 mM NADH (B-Nicotinamide Adenine Dinucleotide, Reduced Form) in 200 mM HEPES, pH 7.5 • 5. 4 M MgCl2 (Magnesium Chloride) in ddH2O 6. 1 M DTT (Dithiothreitol) in 200 mM HEPES, pH 7.5 • 7. 15 Units/mL LDH (Lactic Dehydrogenase) • 8. 15 Units/mL PK (Pyruvate Kinase) • 9. 5M NaCl dissolved in ddH2O • 10. Tween-20 (Protein Grade) 10% Solution • 11. 1 M HEPES buffer: (N-[2-Hydroxethyl]piperazine-N-[2-ethanesulfonic acid]) Sodium Salt. Dissolve in ddH2O, adjust pH to 7.5, bring volume to 1 L. Filter at 0.1 μm. • 12. […] 100% DMSO (SIGMA) • 14. […] Beckman DU-650 w/ micro cell holders • 18. Beckman 4-position micro cell cuvette Procedure:
Prep Dilution Buffer (DB) for Enzyme (For 30 mL prep) • 1. DB final concentration is 2 mM DTT, 25 mM NaCl2, 5 mM MgCl2, 0.01% Tween-20, and 50 mM HEPES buffer, pH 7.5. • 2. Make up 50 mM HEPES by adding 1.5 mL 1 M HEPES into 28.1 mL of ddH2O. Add rest of the reagents. Into 50 mL conical vial, add 60 μL of 1M DTT, 150 μL 5M NaCl2, 150 μL 1M MgCl2, and 30 μL of 10% Tween-20 to give total volume of 30 mL. • 3. Vortex for 5-10 seconds. • 4. Aliquot out DB at 1 mL/tube and label tubes as “DB HGFR” • 5. Note: This can be prepared and stored ahead of time. • 6. Freeze un-used aliquots in microcentrifuge tubes at −20° C. freezer.
Prep Compounds • 1. For compound dilution plate, add 4 μL of 10 mM stock into column 1 of plate, and bring volume to 100 μL with 100% DMSO. • 2. Set up the Precision 2000 dilution method. A final concentration of 200 μM compound in 50% DMSO, 100 mM HEPES (1:2 serial dilution).
Prep Coupled Enzymatic Buffer:
1. Final concentration in assay:
• 2. For a 10 mL reaction buffer add 10 μL of 1M PEP, 33 μL of 100 mM NADH, 50 μL of 4M MgCl2, 20 μL of 1M DTT, 6 μL of 500 mM ATP, and […] of 10 mM Met-2 peptide into 100 mM HEPES buffer pH 7.5 and vortex/mix. • 3. Add coupling enzymes, LDH and PK, into reaction mix. Mix by gentle inversion.
1. Spectrophotometer settings:
• 2. Add 85 μL of CE reaction mix into each well of assay plate. • 3. Add 5 μL of diluted compound into a well of the assay plate. • 4. Add 5 μL of 50% DMSO for negative control into last column of assay plate. • 5. Mix with multi-channel pipettor or orbital shaker. • 6. Pre-incubate for 10 minutes at 37° C. • 7. Add 10 μL of 500 nM HGFR to each well of assay plate; the final HGFR concentration is 50 nM in a total final volume of 100 μL. • 8. Measure activity for 10 minutes at λ=340 nm and 37° C.
Ki data were obtained using the HGFR Continuous-Coupled Spectrophotometric Assay, and IC50 data were obtained using the Cellular HGFR Autophosphorylation Assay, both of which are described above.

Sequence of HGFR (c-Met) (P08581 974-1390): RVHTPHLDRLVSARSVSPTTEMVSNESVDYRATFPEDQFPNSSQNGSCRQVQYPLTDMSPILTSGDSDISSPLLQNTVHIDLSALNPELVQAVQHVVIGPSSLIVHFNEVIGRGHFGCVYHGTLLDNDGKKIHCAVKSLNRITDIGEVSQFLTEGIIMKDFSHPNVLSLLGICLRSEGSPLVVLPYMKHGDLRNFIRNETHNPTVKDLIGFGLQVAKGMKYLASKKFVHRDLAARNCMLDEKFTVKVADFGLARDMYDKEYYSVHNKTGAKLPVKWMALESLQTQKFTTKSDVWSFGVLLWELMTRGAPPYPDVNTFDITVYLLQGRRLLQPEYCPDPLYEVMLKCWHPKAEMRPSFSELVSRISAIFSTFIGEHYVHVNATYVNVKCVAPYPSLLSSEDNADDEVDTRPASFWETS

Row | Ki | Compound
1 | 11000 nM | CC(Oc1cc(-c2ccc(C(=O)N3CCC(N4CCCC4)CC3)cc2)cnc1N)c1ccccc1 (stereo not drawn) [Example 53, {4-[6-Amino-5-(1-phenyl-ethoxy)-pyridin-3-yl]-phenyl}-(4-pyrrolidin-1-yl-piperidin-1-yl)-methanone]
2 | 79 nM | CC(Oc1cc(-c2ccc(F)c(C(=O)N3C[C@@H](C)N[C@@H](C)C3)c2)cnc1N)c1c(Cl)ccc(F)c1Cl (stereo partly drawn) [Example 54, (5-{6-Amino-5-[1-(2,6-dichloro-3-fluoro-phenyl)-ethoxy]-pyridin-3-yl}-2-fluoro-phenyl)-(dimethyl-piperazin-1-yl)-methanone]
3 | 102 nM | CC(Oc1cc(-c2ccc(F)c(C(=O)N3CCC(N4CCCC4)CC3)c2)cnc1N)c1c(Cl)ccc(F)c1Cl (stereo not drawn) [Example 55, (5-{6-Amino-5-[1-(2,6-dichloro-3-fluoro-phenyl)-ethoxy]-pyridin-3-yl}-2-fluoro-phenyl)-(4-pyrrolidin-1-yl-piperidin-1-yl)-methanone]
4 | 173 nM | Cc1ccc(F)c(C(C)Oc2cc(-c3ccc(C(=O)N4CCC(N5CCCC5)CC4)cc3)cnc2N)c1Cl (stereo not drawn) [Example 56, (4-{6-Amino-5-[1-(2-chloro-6-fluoro-3-methyl-phenyl)-ethoxy]-pyridin-3-yl}-phenyl)-(4-pyrrolidin-1-yl-piperidin-1-yl)-methanone]
5 | 578 nM | CC(Oc1cc(-c2cn(CC(=O)OC(C)(C)C)cn2)cnc1N)c1c(Cl)ccc(F)c1Cl (stereo not drawn) [Example 58, (4-{6-Amino-5-[1-(2,6-dichloro-3-fluoro-phenyl)-ethoxy]-pyridin-3-yl}-imidazol-1-yl)-acetic acid tert-butyl ester]
6 | 155 nM | CC(Oc1cc(-c2cn(CCN3CCOCC3)cn2)cnc1N)c1c(Cl)ccc(F)c1Cl (stereo not drawn) [Example 59, 3-[1-(2,6-Dichloro-3-fluoro-phenyl)-ethoxy]-5-[1-(2-morpholin-4-yl-ethyl)-1H-imidazol-4-yl]-pyridin-2-ylamine]
7 | 599 nM | CC(Oc1cc(-c2cn(CC(=O)NCCN3CCCC3)cn2)cnc1N)c1c(Cl)ccc(F)c1Cl (stereo not drawn) [Example 60, 2-(4-{6-Amino-5-[1-(2,6-dichloro-3-fluoro-phenyl)-ethoxy]-pyridin-3-yl}-imidazol-1-yl)-N-(2-pyrrolidin-1-yl-ethyl)-acetamide]
8 | 72 nM | CC(Oc1cc(-c2ccc(N3CCOCC3)nc2)cnc1N)c1c(Cl)ccc(F)c1Cl (stereo not drawn) [Example 61, 5-[1-(2,6-Dichloro-3-fluoro-phenyl)-ethoxy]-6′-morpholin-4-yl-[3,3′]bipyridinyl-6-ylamine]
9 | 35.3 nM | CC(Oc1cc(-c2ccc(N3CCN(C)CC3)nc2)cnc1N)c1c(Cl)ccc(F)c1Cl (stereo not drawn) [Example 63, 5-[1-(2,6-Dichloro-3-fluoro-phenyl)-ethoxy]-6′-(4-methyl-piperazin-1-yl)-[3,3′]bipyridinyl-6-ylamine]
10 | 19.3 nM | CC(Oc1cc(-c2ccc(N3CCC(O)CC3)nc2)cnc1N)c1c(Cl)ccc(F)c1Cl (stereo not drawn) [Example 64, 6″-Amino-5″-[1-(2,6-dichloro-3-fluoro-phenyl)-ethoxy]-3,4,5,6-tetrahydro-2H-[1,2′;5′,3″]terpyridin-4-ol]
11 | 43.5 nM | CC(Oc1cc(-c2ccc(N3CCC(CO)CC3)nc2)cnc1N)c1c(Cl)ccc(F)c1Cl (stereo not drawn) [Example 65, {6″-Amino-5″-[1-(2,6-dichloro-3-fluoro-phenyl)-ethoxy]-3,4,5,6-tetrahydro-2H-[1,2′;5′,3″]terpyridin-4-yl}-methanol]
12 | 32.7 nM | CC(Oc1cc(-c2ccc(N3CCN(CCO)CC3)nc2)cnc1N)c1c(Cl)ccc(F)c1Cl (stereo not drawn) [Example 66, 2-(4-{6′-Amino-5′-[1-(2,6-dichloro-3-fluoro-phenyl)-ethoxy]-[3,3′]bipyridinyl-6-yl}-piperazin-1-yl)-ethanol]
13 | 23.1 nM | CC(Oc1cc(-c2ccc(N3CCC(N4CCCC4)CC3)nc2)cnc1N)c1c(Cl)ccc(F)c1Cl (stereo not drawn) [Example 67, 5″-[1-(2,6-Dichloro-3-fluoro-phenyl)-ethoxy]-4-pyrrolidin-1-yl-3,4,5,6-tetrahydro-2H-[1,2′;5′,3″]terpyridin-6″-ylamine]
14 | 68.1 nM | CCN(CC)CCC(=O)NCc1cccc(-c2cnc(N)c(OC(C)c3c(Cl)ccc(F)c3Cl)c2)c1 (stereo not drawn) [Example 68, N-(3-{6-Amino-5-[1-(2,6-dichloro-3-fluoro-phenyl)-ethoxy]-pyridin-3-yl}-benzyl)-3-diethylamino-propionamide]
15 | 39 nM | CC(Oc1cc(-c2ccc(N3CCN(CCN(C)C)CC3)nc2)cnc1N)c1c(Cl)ccc(F)c1Cl (stereo not drawn) [Example 69, 5-[1-(2,6-Dichloro-3-fluoro-phenyl)-ethoxy]-6′-[4-(2-dimethylamino-ethyl)-piperazin-1-yl]-[3,3′]bipyridinyl-6-ylamine]
16 | 52 nM | CC(Oc1cc(-c2cccc(CNC(=O)CN(C)C)c2)cnc1N)c1c(Cl)ccc(F)c1Cl (stereo not drawn) [Example 70, N-(3-{6-Amino-5-[1-(2,6-dichloro-3-fluoro-phenyl)-ethoxy]-pyridin-3-yl}-benzyl)-2-dimethylamino-acetamide]
17 | 27 nM | CC(Oc1cc(-c2ccc(OC3CCNCC3)nc2)cnc1N)c1c(Cl)ccc(F)c1Cl (stereo not drawn) [Example 71, 5-[1-(2,6-Dichloro-3-fluoro-phenyl)-ethoxy]-6′-(piperidin-4-yloxy)-[3,3′]bipyridinyl-6-ylamine]
18 | 49 nM | CC(Oc1cc(-c2cccc(CNC(=O)CCN)c2)cnc1N)c1c(Cl)ccc(F)c1Cl (stereo not drawn) [Example 72, 3-Amino-N-(3-{6-amino-5-[1-(2,6-dichloro-3-fluoro-phenyl)-ethoxy]-pyridin-3-yl}-benzyl)-propionamide]
19 | 21 nM | CC(Oc1cc(-c2ccc(N3CCNCC3)nc2)cnc1N)c1c(Cl)ccc(F)c1Cl (stereo not drawn) [Example 73, 5-[1-(2,6-Dichloro-3-fluoro-phenyl)-ethoxy]-6′-piperazin-1-yl-[3,3′]bipyridinyl-6-ylamine]
20 | 47 nM | CC(Oc1cc(-c2ccc(OCCC3CCNCC3)nc2)cnc1N)c1c(Cl)ccc(F)c1Cl (stereo not drawn) [Example 74, 5-[1-(2,6-Dichloro-3-fluoro-phenyl)-ethoxy]-6′-(2-piperidin-4-yl-ethoxy)-[3,3′]bipyridinyl-6-ylamine]
21 | 28 nM | CC(Oc1cc(-c2ccc(NCCN3CCCC3)nc2)cnc1N)c1c(Cl)ccc(F)c1Cl (stereo not drawn) [Example 75, 5-[1-(2,6-Dichloro-3-fluoro-phenyl)-ethoxy]-N6′-(2-pyrrolidin-1-yl-ethyl)-[3,3′]bipyridinyl-6,6′-diamine]
22 | 22 nM | CC(Oc1cc(-c2ccc(NC3CCNCC3)nc2)cnc1N)c1c(Cl)ccc(F)c1Cl (stereo not drawn) [Example 76, 5-[1-(2,6-Dichloro-3-fluoro-phenyl)-ethoxy]-N6′-piperidin-4-yl-[3,3′]bipyridinyl-6,6′-diamine]
23 | 38 nM | CC(Oc1cc(-c2cn(C3CCNCC3)cn2)cnc1N)c1c(Cl)ccc(F)c1Cl (stereo not drawn) [Example 77, 3-[1-(2,6-Dichloro-3-fluoro-phenyl)-ethoxy]-5-(1-piperidin-4-yl-1H-imidazol-4-yl)-pyridin-2-ylamine]
24 | 57 nM | CCOc1ccc(Cl)c(C(C)Oc2cc(-c3ccc(C(=O)N4CCNCC4)cc3)cnc2N)c1Cl (stereo not drawn) [Example 78, (4-{6-Amino-5-[1-(2,6-dichloro-3-ethoxy-phenyl)-ethoxy]-pyridin-3-yl}-phenyl)-piperazin-1-yl-methanone]
